The values that follow come from publication PMC3397428 (Bioorganic & medicinal chemistry, 2012).

One data set has as its target T1, PfDHODH (Plasmodium falciparum, UniProt Q08210).
T1 sequence (Q08210 24-569): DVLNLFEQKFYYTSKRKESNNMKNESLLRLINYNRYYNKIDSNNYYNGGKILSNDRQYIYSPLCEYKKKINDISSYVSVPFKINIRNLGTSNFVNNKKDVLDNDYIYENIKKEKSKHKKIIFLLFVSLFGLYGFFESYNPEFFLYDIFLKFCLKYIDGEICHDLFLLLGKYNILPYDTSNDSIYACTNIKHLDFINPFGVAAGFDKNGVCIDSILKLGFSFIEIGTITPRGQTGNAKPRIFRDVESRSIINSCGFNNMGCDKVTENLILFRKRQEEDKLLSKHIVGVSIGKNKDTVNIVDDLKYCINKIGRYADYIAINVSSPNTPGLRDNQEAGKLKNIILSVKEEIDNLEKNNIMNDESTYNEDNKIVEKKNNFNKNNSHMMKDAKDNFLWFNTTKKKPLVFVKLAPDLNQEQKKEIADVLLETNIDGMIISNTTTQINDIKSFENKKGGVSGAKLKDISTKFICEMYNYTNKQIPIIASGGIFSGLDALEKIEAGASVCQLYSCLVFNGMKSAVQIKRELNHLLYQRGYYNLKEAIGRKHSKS
Kind of data set: DHODH inhibition, Plasmodium falciparum. The format is biochemical.

Data set [1] relates to B16-F10 mouse melanoma tumor cells. Put plainly: B16-F10 syngeneic mouse melanoma model. The data set is classed as in vivo. Conditions: athymic mice, 35 mg/kg IP 3 × weekly (M, W, F) for two weeks.
The nature of data set [2]: Dose-finding study in athymic mice. The following applies: 35 mg/kg three times weekly for 4 weeks.

“Also recorded” adds a separate entry of the source.

The compound `Nc1nc2c(c(Nc3ccccc3)n1)-c1ccccc1C2` [Compound 1, N^4-Phenyl-9H-indeno[2,1-d]pyrimidine-2,4-diamine] registered an IC50 on PfDHODH of at least 200 µM.
Still for that read-out and setting: then `Nc1nc2c(c(Nc3cccc(F)c3)n1)-c1ccccc1C2` [Compound 4, N^4-(3-Fluorophenyl)-9H-indeno[2,1-d]pyrimidine-2,4-diamine], with at least 200 µM.
In turn, `Nc1nc2c(c(Nc3ccc(Cl)cc3)n1)-c1ccccc1C2` [Compound 7, N^4-(4-Chlorophenyl)-9H-indeno[2,1-d]pyrimidine-2,4-diamine] gave an IC50 on PfDHODH of at least 200 µM. In addition, in data set [1], the “growth rate of primary B16-F10 tumor” value is on record as “equipotent with the standard 21; also recorded: decreased tumor growth rate”. In data set [2], the “loss in weight in dose-finding study” value is “no significant loss in weight” and the “toxicity in dose-finding study” value is “no apparent toxicity”.
Compound `Nc1nc2c(c(Nc3cccc(Br)c3)n1)-c1ccccc1C2` [Compound 8, N^4-(3-Bromophenyl)-9H-indeno[2,1-d]pyrimidine-2,4-diamine] came in with an IC50 against PfDHODH of at least 200 µM.
Compound `COc1cccc(Nc2nc(N)nc3c2-c2ccccc2C3)c1` [Compound 11, N^4-(3-Methoxyphenyl)-9H-indeno[2,1-d]pyrimidine-2,4-diamine] came in with an IC50 at PfDHODH of at least 200 µM.
As to `Nc1nc2c(c(Nc3ccc(Cl)cc3F)n1)-c1ccccc1C2` [Compound 13, N^4-(4-Chloro-2-fluorophenyl)-9H-indeno[2,1-d]pyrimidine-2,4-diamine], the IC50 against PfDHODH was at least 200 µM.
